The record followed here is patent EP0624586B1, “Substituted pyrroles” (F. HOFFMANN-LA ROCHE AG, priority 1993, dated 1994).

Where a name gives a salt, the structure may show the parent alone.

The target in this experiment is protein kinase C. The experiment in a line: in vitro protein kinase C inhibition (32P incorporation from [γ-32P]ATP into histone). It counts as biochemical. As to conditions: protein kinase C isolated from rat brains; 10 µM [γ-32P]ATP, lysine-rich histone, 30°C, 10 minutes. Here is the method:
Reaction mixtures (100 µl) contain 10 µM [γ-^32P]ATP, 0.2 mg/ml (about 15 µM) lysine-rich histone, 0.5 mM CaCl2 and 40 µg/ml phosphatidylserine in 25 mM Tris HCl, 5 mM MgNO3 (pH 7.5) buffer. The enzyme protein kinase C is isolated from rat brains according to the method of Kikkawa et al., J. Biol. Chem. 257, 13341 (1982). The reaction is started by adding the enzyme, is run at 30°C for 10 minutes and is then stopped using 1 ml of ice-cold 10% trichloroacetic acid. Acid-precipitable protein is collected on glass fibre discs by filtration. These discs are then washed with 5% trichloroacetic acid containing 20 mM sodium pyrophosphate (in order to remove unreacted ATP), followed by ethanol. The discs are dried and counted. Counts associated with each disc are used as a measure of the incorporation of ^32P from [γ-^32P]ATP into histone. The degree of enzyme blockade at each test compound concentration is calculated from (Cpm incorporated + test compound + enzyme)/(Cpm incorporated - test compound + enzyme)x 100% [formula] The IC50 value is that concentration of test compound which reduces by 50% the protein kinase-induced incorporation of the ^32P under the assay conditions described above.

A word on the IC50: it is the point on the concentration scale where inhibition reaches its midpoint. Read a low IC50 as higher potency.

With `CCC(N)[C@H]1CCn2c(c(C3=C(c4cn(C)c5ccccc45)C(=O)NC3=O)c3ccccc32)C1` (single isomer, unassigned) [Example 10, 3-[8(S)-[1(R or S)-aminopropyl]-6,7,8,9-tetrahydropyrido[1,2-a]indol-10-yl]-4-(1-methyl-3-indolyl)-1H-pyrrole-2,5-dione hydrochloride], the IC50 was 3.3 nM.

Regarding `CC(C)[C@H](N)[C@H]1CCn2c(c(C3=C(c4cn(C)c5ccccc45)C(=O)NC3=O)c3ccccc32)C1` [Example 11, 3-[8(S)-[1(S)-amino-2-methylpropyl]-6,7,8,9-tetrahydropyrido[1,2-a]indol-10-yl-4-(1-methyl-3-indolyl)-1H-pyrrole-2,5-dione hydrochloride], half-maximal inhibition (IC50) was put at 5.5 nM.
